Consider one molecule from patent US20200385396A1, “Compond for treatment or prevention of obesity or diseases related to obesity, and application thereof” (SHANGHAI INSTITUTES FOR BIOLOGICAL SCIENCES, CHINESE …, priority 2017, published 2020).

The assay deals with mice fed with high-fat diet. Kind of assay: Paired feeding experiment in metabolic cage. The class given is in vivo, mouse. The following applies: 20 mg/kg. The protocol:
Mice fed with high-fat diet (8 mice per group) are placed in a metabolic cage for 3 days and injected with 20 mg/kg of HLY72 or DMSO once a day. Half of the mice in the DMSO group are paired with the HLY72 group. The average daily food intake (A), energy dissipation (B), respiratory exchange rate (C), physical activity (D) (E) of the three groups of mice after the three-day metabolic cage experiment is completed, the weight of the three groups of mice.
Before starting the metabolic cage experiment, the mice were fed in a single cage for 1 week. After a one-week single cage adaptation period, three days before the start of the small molecule compound injection, the mice were injected with 25 μL of DMSO within 2 hours before turning off the lights every afternoon, allowing them to adapt to the injection for 3 days. After 3 days of injection, the acclimated mice were put into the metabolic cage. Starting from the same day, 25 μL of DMSO and HLY72 (20 mg/kg) were injected within 2 hours before turning off the lights for 3 consecutive days.
Next, the HLY72 injection group and their paired feeding group are compared. The DMSO-injected mice were divided into two groups. The first group was free to get enough food, while the other group was provided the same amount of food as the HLY72 group daily. […] Compared with the DMSO group, the energy expenditure of the HLY72 group and its paired feeding group are decreased day and night. There is no difference in energy expenditure between the HLY72 group and its paired feeding group during the day and night (FIG. 14b).

Regarding `C=Cc1cccc2c1N(C)Cc1cc3c(cc1-2)OCO3` [HLY72], the “body weight, difference to paired feeding group” value is recorded as “no significant difference”; the “physical activity compared with the DMSO group and the paired feeding group” value was “significantly reduced”. Also, the body weight entry (after three-day metabolic cage) is on record as “decreased significantly”. For the same molecule, where the note is “day and night”, the “energy expenditure compared with the DMSO group” value is recorded as “decreased” and the “energy expenditure, difference to paired feeding group” value is on record as “no difference”. Further, the “respiratory exchange rates compared with the paired feeding group and the DMSO group” value (night and day) was “significantly reduced”.
